Columns and labels:
[1] = test system: p21 induction in HCT 116 cells; assay: p21 induction in cells (in-cell western, p21/GAPDH ratio); type: cell-based; conditions: Homo sapiens; HCT 116 colon carcinoma cell line, 24 h compound incubation; percent activation vs internal reference WRN inhibitor; read-out: P21_EC50
Experimental: The colon carcinoma cell line HCT 116 was obtained from ATCC and cultured in growth medium consisting of Mccoy's 5A Medium (Gibco 16600108) supplemented with […] (Transgene FS201-02) and 100 units/mL penicillin-streptomycin (Gibco 15140122) and maintained at 37° C. under […]. On the day of seeding, 2,000 cells in 30 μL of culture media were plated per well to Poly-D-Lysine 384 Well Black Clear Plates (Biocoat 356663) and incubated overnight at 37° C. under 5% CO2. The following day, compounds were serially diluted in DMSO for a total of 11 test concentrations. The typical starting concentration of cpds was 10 μM with 2-fold dilutions. Next, 150 nL of diluted compound was added in duplicate to the assay plate, using an Echo 655 (Labcyte). The plate was centrifuged at 500 RPM for 1 min and then incubated at 37° C. under 5% CO2 for 24 h. After 24 h, medium was removed, and cells were fixed by adding 40 µL of 4% paraformaldehyde solution to each well and incubated for 20 min at room temperature. The plate was then washed 4 times with 100 μL per well of wash buffer (PBS with 0.1% Tween-20) using a microplate washer. Next, 30 μL of ice-cold methanol was added to each well and the plate was incubated at −20° C. for 10 min. The plate was washed 4 times with 100 μL per well of wash buffer by a microplate washer, then 30 μL per well of blocking buffer (Intercept PBS blocking buffer (LI-COR 927-70001) with 0.05% Tween-20) was added and the plate was incubated at room temperature with shaking for 2 h. Next, to each test well, 20 μL of primary antibody solution (p21 Waf1/CIP (12D1) Rabbit mAb (Cell Signaling Technologies 2947) diluted 1:1000 and GAPDH (D4C6R) Mouse mAb (Cell Signaling Technologies 97166) diluted 1:2000 in blocking buffer) was added and the plate was placed at 4° C., overnight. The following day, the plate was washed 5 times with 100 μL per well of wash buffer using a microplate washer for 5 min. 20 μL per well of secondary antibody (IRDye 680CW Goat anti-Mouse IgG (H+L) (LI-COR 926-68070) diluted 1: 2000 in Blocking Buffer and IRDye 800CW Goat anti-Rabbit IgG (H+L) (LI-COR 926-32211) diluted 1: 2000 in Blocking Buffer) was then added and the plate was stored for 2 h in the dark at room temperature with shaking. The plate was then washed 4 times with 100 μL per well of wash buffer again using a microplate washer. Finally, the p21 signal and the GAPDH signal were quantified using a LI-COR Odyssey CLx Imager machine reading at 800 nm and 700 nm, respectively. Each plate contained DMSO control (low control) and an internal reference WRN inhibitor (high control) respectively. For quantitation, the 800 nm/700 nm ratio was calculated for each well to give fold p21 induction and then percent activation for each compound well was calculated as follows (100×(ratio cpd well-ratio low control)/(ratio high control−ratio low control)). EC50 values for each compound were generated after non-linear regression curve fitting using commercially available software.

[2] = target: T1, human Werner helicase (WRN-BV08, amino acids 517-1235 with L1074F point mutation) (Homo sapiens, UniProt Q14191, L1074F); assay: ADP-Glo WRN helicase ATPase inhibition assay; type: biochemical; conditions: 0.15 nM WRN, 5 μM ATP, 0.1 nM DNA duplex; 15 minutes preincubation, 60 minutes at 25° C.; read-out: ADP-Glo_hWRN_IC50
T1 construct: [pFastBac1-WRN-(517-1235 L1074F)-TEV-8His]; 8xHis (C, cleaved yes); TEV cleavage site (ENLYFQG) (C); made in house; host or cells: Sf9 insect cells (baculovirus, pFastBac)
From the text: Bovine skin gelatin (BSG), dimethyl sulfoxide (DMSO), Pluronic F-127 and tris(2-carboxyethyl)phosphine hydrochloride solution (TCEP) were purchased from Sigma-Aldrich (St. Louis, MO) at the highest level of purity possible. Bicine buffer solution was purchased from Alfa Aesar (Tewksbury, MA) and compound NSC-617145 was purchased from Tocris (Minneapolis, MN). DNA duplex was synthesized at BGI (Shenzhen, China) and was composed of strand 1 with the sequence 5′-[…]-3′ (SEQ ID NO.: 1) and strand 2 with the sequence 5′-[…]-3′ (SEQ ID NO.: 2). DNA strands were annealed by heating to 95° C. for 5 minutes followed by slow cooling to room temperature. Compounds in 100% DMSO (0.1 μl) were spotted into a 384-well white polystyrene Optiplate-384 (Perkin Elmer; Waltham, MA) assay plate using a LabCyte Echo 550 (Agilent; Santa Clara, CA). DMSO (0.1 μl) was added to columns 12, rows A-H and column 24, rows I-P for the maximum signal control. Compound NSC-617145 (0.1 μl) was added to columns 12, rows I-P and 24, rows A-H for the minimum signal control (100% inhibition). Compounds/DMSO were preincubated for 15 minutes at 25° C. with 5 μl 2×WRN (BV08), prepared as described below, in assay buffer containing 20 mM Bicine (pH=7.5), 1 mM MgCl2, 10 mM KCl, 0.1% Pluronic F-127, 0.005% BSG, 1 mM TCEP. The reaction was initiated by the addition of 5 μl 2× substrate mixture in assay buffer and incubated for 60 minutes at 25° C. The final concentrations of the assay components were 0.15 nM WRN, 5 μM ATP, and 0.1 nM DNA duplex. The final DMSO concentration was 1% and the reference compound concentration (NSC-617145) used for the minimal signal control was 20 μM. The reaction was stopped by the addition of the ADP-Glo Kit components (Promega; Madison, WI) as directed and the relative luminescence units (RLU) were read on an Envision 2104 (Perkin Elmer; Waltham, MA). % inhibition calculation:
Where RLU=relative luminescence units, sample=signal in sample well, and MIN and MAX are the respective minimum and maximum signal controls.
Four-Parameter IC50 Fit Equation:
Where top and bottom are normally allowed to float but may be fixed at 100 or 0 respectively in a 3-parameter fit. Y is the % inhibition and X is the compound concentration.
Molecular Biology and virus production. The DNA encoding human Werner helicase (Uniprot Q14191, amino acids 517-1235 with L1074F point mutation) was generated with codon-optimization for E. coli expression and subcloned into the pFastBac vector with a TEV cleavable 8×His tag (SEQ ID NO: 5) (WRN-BV08). The baculovirus from the expression plasmid WRN-BV08 was generated from transfection and amplification following the manufacturer's instructions.
Sf9 cells grown in SF900II media were infected with 1:200 WRN-BV08 P2 virus and incubated for protein expression for 72 h at 27° C. The WRN protein was purified using the following protocol. The cell pellets were thawed and resuspended in buffer A (50 mM Tris, pH 7.5, 500 mM NaCl, 1 mM TCEP, 10% Glycerol) supplemented with 0.5% CHAPS, 1 mM PMSF, […] Leupeptin, 1 μg/ml Pepstatin, and the Pierce Universal Nuclease and cocktail tablet. Cleared lysates were loaded onto a Ni Sepharose™ excel column and washed with buffer A and bound protein was eluted with buffer A supplemented with 300 mM imidazole. The eluted protein was dialyzed against buffer A and digested by His-tagged TEV (1:5 ratio) overnight at 4° C. ZnCl2 was added into the sample at final 15 μM before loading onto a second Ni Sepharose™ excel column. Untagged WRN protein was eluted from the column with buffer A supplemented with 20 mM imidazole, dialyzed overnight into buffer B (50 mM Tris, pH 7.5, 1 mM TCEP, 10% Glycerol) supplemented with 150 mM NaCl and loaded onto a Heparin column. Proteins were eluted with a step gradient of buffer B supplemented with 150 mM, 200 mM, 300 mM and 500 mM NaCl. […]

T1 sequence (Q14191 with tags, fused parts or gaps L1074F): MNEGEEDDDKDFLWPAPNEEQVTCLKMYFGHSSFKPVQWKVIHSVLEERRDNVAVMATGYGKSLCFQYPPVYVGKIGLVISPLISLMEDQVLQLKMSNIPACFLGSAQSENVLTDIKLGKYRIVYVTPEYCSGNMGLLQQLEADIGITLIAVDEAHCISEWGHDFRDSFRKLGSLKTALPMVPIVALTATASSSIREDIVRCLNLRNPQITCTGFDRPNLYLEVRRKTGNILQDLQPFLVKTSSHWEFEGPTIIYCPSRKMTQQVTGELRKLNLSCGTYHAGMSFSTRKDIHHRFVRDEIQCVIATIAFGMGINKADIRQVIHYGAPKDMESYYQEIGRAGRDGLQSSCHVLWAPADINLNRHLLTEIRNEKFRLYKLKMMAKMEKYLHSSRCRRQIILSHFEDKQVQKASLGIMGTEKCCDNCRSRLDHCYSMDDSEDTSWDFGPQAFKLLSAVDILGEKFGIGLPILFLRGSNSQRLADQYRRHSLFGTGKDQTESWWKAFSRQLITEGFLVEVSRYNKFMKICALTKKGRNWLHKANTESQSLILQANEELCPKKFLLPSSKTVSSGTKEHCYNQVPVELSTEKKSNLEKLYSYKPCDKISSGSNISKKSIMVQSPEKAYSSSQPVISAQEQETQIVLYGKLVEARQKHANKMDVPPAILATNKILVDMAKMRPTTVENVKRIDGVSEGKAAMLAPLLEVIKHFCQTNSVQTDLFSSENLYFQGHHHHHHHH

SMILES	EC50 [1] [nM]	IC50 [2] [nM]
COc1cc(-n2nc3c(=O)c(N4CCN(C(=O)c5ncnc(C)c5O)[C@H]5CC[C@@H]54)c4n(c3n2)[C@@H](C(=O)NC23CC(C5CC5)(C2)C3)C[C@@H]4C)ccn1 (single isomer, unassigned) [Compound I-1]	≤ 500	5 to 50
COc1cc(-n2nc3c(=O)c(N4CCN(C(=O)c5ncnc(C)c5O)[C@H]5CC[C@@H]54)c4n(c3n2)[C@@H](C(=O)Nc2ccc(C(F)(F)F)cc2F)C[C@@H]4C)ccn1 (single isomer, unassigned) [Compound I-15]	≤ 500	≤ 5
Cc1ncnc(C(=O)N2CCN(c3c4n(c5nn(C6CC6)nc5c3=O)[C@@H](C(=O)Nc3ccc(C(F)(F)F)cc3Cl)C[C@@H]4C)[C@H]3CC[C@@H]32)c1O (relative stereo) [Compound I-28, (6R*,8R**)-N-[2-chloro-4-(trifluoromethyl)phenyl]-2-cyclopropyl-5-[(1S,6S)-5-(5-hydroxy-6-methylpyrimidine-4-carbonyl)-2,5-diazabicyclo[4.2.0]octan-2-yl]-6-methyl-4-oxo-2H,4H,6H,7H,8H-[1,2,3]triazolo[4,5-e]indolizine-8-carboxamide]	500 to 2000	5 to 50
Cc1ncnc(C(=O)N2CCN(c3c4n(c5nn(C6CC6)nc5c3=O)[C@H](C(=O)Nc3ccc(C(F)(F)F)cc3Cl)C[C@H]4C)[C@H]3CC[C@@H]32)c1O (relative stereo) [Compound I-27, (6R*,8R**)-N-[2-chloro-4-(trifluoromethyl)phenyl]-2-cyclopropyl-5-[(1S,6S)-5-(5-hydroxy-6-methylpyrimidine-4-carbonyl)-2,5-diazabicyclo[4.2.0]octan-2-yl]-6-methyl-4-oxo-2H,4H,6H,7H,8H-[1,2,3]triazolo[4,5-e]indolizine-8-carboxamide]	≤ 500	≤ 5
Cc1nc2c(=O)c(N3CCN(C(=O)c4ncnc(C)c4O)[C@H]4CC[C@@H]43)c3n(c2nc1C)[C@H](C(=O)Nc1ccc(C(F)(F)F)cc1Cl)C[C@H]3C (single isomer, unassigned) [Compound I-20]	> 5000	> 500
COc1cc(-n2nc3c(=O)c(N4CCN(C(=O)c5ncnc(C)c5O)[C@H]5CC[C@@H]54)c4n(c3n2)[C@H](C(=O)NC23CC(C5CC5)(C2)C3)C[C@H]4C)ccn1 (single isomer, unassigned) [Compound I-3]	500 to 2000	50 to 100
Cc1ncnc(C(=O)N2CCN(c3c4n(c5nn(C6CC6)nc5c3=O)[C@@H](C(=O)Nc3ccc(C(F)(F)F)cc3Cl)C[C@H]4C)[C@H]3CC[C@@H]32)c1O (single isomer, unassigned) [Compound I-21]	≤ 500	≤ 5
COc1cc(-n2nc3c(=O)c(N4CCN(C(=O)c5ncnc(C)c5O)[C@H]5CC[C@@H]54)c4n(c3n2)[C@@H](C(=O)Nc2ccc(C(F)(F)F)cc2Cl)C[C@@H]4C)ccn1 (single isomer, unassigned) [Compound I-14]	≤ 500	5 to 50
COc1cc(-n2nc3c(=O)c(N4CCN(C(=O)c5ncnc(C)c5O)[C@H]5CC[C@@H]54)c4n(c3n2)[C@H](C(=O)NC23CC(C5CC5)(C2)C3)C[C@@H]4C)ccn1 (single isomer, unassigned) [Compound I-4]	> 5000	100 to 500
Cc1cnc2c(n1)c(=O)c(N1CCN(C(=O)c3ncnc(C)c3O)[C@H]3CC[C@@H]31)c1n2[C@@H](C(=O)Nc2ccc(C(F)(F)F)cc2Cl)C[C@@H]1C (single isomer, unassigned) [Compound I-12]	> 5000	> 500
COc1cc(-n2nc3c(=O)c(N4CCN(C(=O)c5ncnc(C)c5O)[C@H]5CC[C@@H]54)c4n(c3n2)[C@@H](C(=O)NC23CC(C5CC5)(C2)C3)C[C@H]4C)ccn1 (single isomer, unassigned) [Compound I-2]	≤ 500	5 to 50
Cc1nc2c(=O)c(N3CCN(C(=O)c4ncnc(C)c4O)[C@H]4CC[C@@H]43)c3n(c2nc1C)[C@@H](C(=O)Nc1ccc(C(F)(F)F)cc1Cl)C[C@H]3C (single isomer, unassigned) [Compound I-19]	500 to 2000	50 to 100
